Experimental findings from article PMC6480602, “Design, Synthesis, and Evaluation of Monoamine Oxidase A Inhibitors–Indocyanine Dyes Conjugates as Targeted Antitumor Agents” (Molecules, 2019) are described below.

In series [1] the test system is PC-3 cells. The experiment in a line: MTT cytotoxicity assay against PC-3 cells. The series is classed as cell-based, human. Particulars: for IC50: 96 h exposure, read-out: IC50 (μM), anti-proliferative activity against PC-3 cells. The protocol:
The antitumor activities of G1–G13 were evaluated by MTT (3-(4,5-dimethylthiazol-2-yl)-2,5-diphenyltetrazolium bromide) assay using a human PC-3 cell line.
The in vitro cytotoxicity activity of G1–G13 were measured by the colorimetric MTT assay. Briefly, PC-3 cells were incubated in 96-well plates at a density of 3 × 10^3 cells/well for 24 h. Then, the cells were exposed to various concentrations of tested compounds, INH and DOX, respectively for 96 h. After incubation, 10 μL of MTT (5 mg/mL) solution was added and the plates were incubated for 4 h at 37 °C. Next, the medium was replaced with 200 μL of DMSO to dissolve the formed formazan crystals. The absorbance was measured at 570 nm on a microplate reader (Synergy-HT, BioTek Instruments, Winooski, VT, USA).
A general note: Tetrazolium dyes change colour on reduction, which living cells bring about.

Series [2] addresses T1, Monoamine oxidase A (MAOA) (Homo sapiens, UniProt P21397).
T1 construct: the prostate cancer cell line LNCaP expressed a relatively high level of MAOA; endogenous in cells; host or cells: LNCaP cells (Cell Bank of the Chinese Academy of Sciences, Shanghai)
T1 sequence (P21397 1-527): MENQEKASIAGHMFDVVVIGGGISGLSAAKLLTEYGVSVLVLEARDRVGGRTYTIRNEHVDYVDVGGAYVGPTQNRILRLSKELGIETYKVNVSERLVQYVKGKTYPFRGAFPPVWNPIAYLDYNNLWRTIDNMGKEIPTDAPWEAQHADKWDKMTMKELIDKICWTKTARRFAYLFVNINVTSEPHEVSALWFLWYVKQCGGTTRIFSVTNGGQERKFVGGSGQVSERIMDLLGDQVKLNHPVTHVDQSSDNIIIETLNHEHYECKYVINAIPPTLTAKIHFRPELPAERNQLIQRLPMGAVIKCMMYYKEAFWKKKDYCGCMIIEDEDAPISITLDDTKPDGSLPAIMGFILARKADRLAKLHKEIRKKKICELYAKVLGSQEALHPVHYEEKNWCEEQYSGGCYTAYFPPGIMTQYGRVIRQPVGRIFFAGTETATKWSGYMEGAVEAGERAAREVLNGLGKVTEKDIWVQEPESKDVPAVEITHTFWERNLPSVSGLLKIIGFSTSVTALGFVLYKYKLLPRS
The experiment in a line: MAOA inhibition activity assay in LNCaP cells (Cell MAOA Assay Kit). The series is classed as cell-based. Particulars: for MAOA inhibitory activity (in words) / IC50: LNCaP cells; for IC50: 48 h treatment, substrate p-tyramine, with MAOB inhibitor pargyline, read-out: IC50 (nM), MAOA inhibitory activity in LNCaP cells. The protocol:
Because the prostate cancer cell line LNCaP expressed a relatively high level of MAOA [17, 40], we tested the inhibitory effect of compounds G10, G11, and G12 on MAOA using LNCaP cells (Table 2).
In a 10-mm dish, 6 × 10^5 LNCaP cells were plated in medium supplemented with 10% FBS. […] The reaction products were extracted and MAOA activities were measured as described in the introduction for the Cell MAOA Assay Kit (Shanghai Chengong Biotechnology, CHN, Lot No: 1-201838-10). The MAOA activity was assessed based on the substrate p-tyramine level after treatment with MAOB inhibitor pargyline.

pIC50: −log10 of the molar value. “Also recorded” adds a separate entry of the source. Counter-ions that a name gives are not always drawn. Like-named read-outs stand apart in the source and are kept apart here.

For orientation: IC50 means the concentration that inhibits the measured activity by half. With `COc1ccc2c(c1)C(C)(C)C(/C=C/C=C/C=C/C=C1/N(CCCCS(=O)(=O)[O-])c3ccc(OC)cc3C1(C)C)=[N+]2CCCCCC(=O)NNC(=O)c1ccncc1` [Compound G8, 3H-Indolium,2-(7-(5-methoxy-1-(4-sulfonatobutyl)-3,3-dimethyl-2H-indolin-2-ylidene)-1,3,5-heptatrien-1-yl)-5-methoxy-1-(6-(2-isonicotinoylhydrazinyl)-6-oxohexyl)-1,3-dihydro-3,3-dimethyl-, inner salt], the IC50 in series [1] (Homo sapiens) was found to be 102 µM.

`CCCCN1/C(=C/C=C/C=C/C=C/C2=[N+](CCCC(=O)NNC(=O)c3ccncc3)c3ccc(C)cc3C2(C)C)C(C)(C)c2cc(OC)ccc21` [Compound G10, 2-(7-(5-Methoxy-1-butyl-3,3,5-trimethyl-2H-indolin-2-ylidene)-1,3,5-heptatrien-1-yl)-1-(6-(2-isonicotinoylhydrazinyl)-4-oxobutyl)-1,3-dihydro-3,3-dimethyl-3H-indolium bromide]: in series [2], the “MAOA inhibitory activity (in words)” value is “moderate MAOA inhibitory activities” and the IC50 is 221 nM. Also, in series [1] (Homo sapiens), the IC50 is 0.85 µM.

In the case of `CCCCN1/C(=C/C=C/C=C/C=C/C2=[N+](CCCCCC(=O)NNC(=O)c3ccncc3)c3ccc(C)cc3C2(C)C)C(C)(C)c2cc(OC)ccc21` [Compound G11], in series [2], the “MAOA inhibitory activity (in words)” value is reported as “moderate MAOA inhibitory activities”. Further, the IC50 in series [2] was 469 nM; in series [1] (Homo sapiens), 0.4 µM.

For the compound `COc1ccc2c(c1)C(C)(C)C(=CC=CC=CC=CC1=[N+](CCCCCC(=O)NNC(=O)c3ccncc3)c3ccc(OC)cc3C1(C)C)N2CCCCCC(=O)O` [Compound G5, 2-(7-(5-methoxyl-1-(5-carboxypentyl)-1,3-dihydro-3,3-dimethyl-2H-indol-2-ylidene)-1,3,5-heptatrien-1-yl)-5-methoxyl-1-(6-(2-isonicotinoylhydrazinyl)-6-oxohexyl)-3,3-dimethyl-3H-indol-1-ium bromide], the IC50 in series [1] (Homo sapiens) is 5.06 µM.

Regarding `CCC1(C)C(/C=C/C2=C(Cl)C(=C/C=C3/N(CCCCCC(=O)O)c4ccc(OC)cc4C3(C)CC)/CCC2)=[N+](CCCCCC(=O)NNC(=O)c2ccncc2)c2ccc(OC)cc21` (centres unmarked) [Compound G3, 2-(2-(3-(2-(5-Methoxyl-1-(5-carboxypentyl)-5-ethyl-3-methyl-indol-2-ylidene)ethylidene)-2-chloro-1-cyclohexen-1-yl)vinyl)-5-methoxyl-1-(6-(2-isonicotinoylhydrazinyl)-6-oxohexyl)-5-ethyl-3-methyl-3H-indol-1-ium bromide], the IC50 in series [1] (Homo sapiens) was 13.3 µM.

With `CCCCN1/C(=C/C=C/C=C/C=C/C2=[N+](CCCCCC(=O)NNC(=O)c3ccncc3)c3ccc(Br)cc3C2(C)C)C(C)(C)c2cc(OC)ccc21` [Compound G12], in series [2], the “MAOA inhibitory activity (in words)” value is on record as “moderate MAOA inhibitory activities” and the IC50 stood at 661 nM. Besides, the IC50 in series [1] (Homo sapiens) turned out to be 1.55 µM.

Regarding `CC1(C)C(/C=C/C=C/C=C/C=C2/N(CCCCCC(=O)NNC(=O)c3ccncc3)c3ccc4ccccc4c3C2(C)C)=[N+](CCCCS(=O)(=O)[O-])c2ccc3ccccc3c21` [Compound G13, 1H-Benz[e]indolium,2-(7-(3,3-dimethyl-1-(4-sulfonatobutyl)benz(e)indolin-2-ylidene)hepta-1,3,5-trien-1-yl)-1-(6-(2-isonicotinoylhydrazinyl)-6-oxohexyl)-1,3-dihydro-3,3-dimethyl-, inner salt], the IC50 in series [1] (Homo sapiens) came out at 10.5 µM.

The term pIC50 denotes −log10 of the IC50, conventionally taken in molar units. A high value points to a small IC50. In the case of `NNC(=O)c1ccncc1` [INH, isoniazid, reference compound], in series [2], the negative logarithm of the IC50 (pIC50) was below 6.00. Besides, in series [1], the “cytotoxicity / antitumor activity against PC-3 cells (in words)” value is listed as “negligible cytotoxicity; also recorded: negligible in vitro antitumor activity”. Moreover, the concentration for half-maximal inhibition (IC50) in series [1] (Homo sapiens) is above 200 µM.

On to `COc1ccc2c(c1)C(C)(C)\C(=C/C=C/C=C/C=C/C1=[N+](CCCCCC(=O)NNC(=O)c3ccncc3)c3ccc(C)cc3C1(C)C)N2CCCCS(=O)(=O)[O-]` [Compound G7, 3H-Indolium,2-(7-(5-methoxy-1-(4-sulfonatobutyl)-3,3-dimethyl-2H-indolin-2-ylidene)-1,3,5-heptatrien-1-yl)-1-(6-(2-isonicotinoylhydrazinyl)-6-oxohexyl)-1,3-dihydro-3,3,5-trimethyl-, inner salt], for which the IC50 in series [1] (Homo sapiens) turned out to be 28.6 µM.

In the case of `COc1ccc2c(c1)C(C)(C)C(=CC=C1CCCC(C=CC3=[N+](CCCCCC(=O)NNC(=O)c4ccncc4)c4ccc(OC)cc4C3(C)C)=C1Cl)N2CCCCCC(=O)O` [Compound G1, 2-(2-(3-(2-(5-Methoxyl-1-(5-carboxypentyl)-3,3-dimethyl-indol-2-ylidene)ethylidene)-2-chloro-1-cyclohexen-1-yl)vinyl)-5-methoxyl-1-(6-(2-isonicotinoylhydrazinyl)-6-oxohexyl)-3,3-dimethyl-3H-indol-1-ium bromide], the IC50 in series [1] (Homo sapiens) worked out at 18.4 µM.

Turning to `COc1ccc2c(c1)C(C)(C)\C(=C/C=C/C=C/C=C/C1=[N+](CCCCCC(=O)NNC(=O)c3ccncc3)c3ccccc3C1(C)C)N2CCCCS(=O)(=O)[O-]` [Compound G9, 3H-Indolium,2-(7-(5-methoxy-1-(4-sulfonatobutyl)-3,3-dimethyl-2H-indolin-2-ylidene)-1,3,5-heptatrien-1-yl)-1-(6-(2-isonicotinoylhydrazinyl)-6-oxohexyl)-1,3-dihydro-3,3-dimethyl-, inner salt], the IC50 in series [1] (Homo sapiens) was determined as 90.5 µM.

Turning to `Cc1ccc2c(c1)C(C)(C)C(=CC=CC=CC=CC1=[N+](CCCCCC(=O)NNC(=O)c3ccncc3)c3ccc(C)cc3C1(C)C)N2CCCCCC(=O)O` [Compound G4, 2-(7-(1-(5-carboxypentyl)-1,3-dihydro-3,3,5-trimethyl-2H-indol-2-ylidene)-1,3,5-heptatrien-1-yl)-1-(6-(2-isonicotinoylhydrazinyl)-6-oxohexyl)-3,3,5-trimethyl-3H-indol-1-ium bromide], the IC50 in series [1] (Homo sapiens) came out at 46.7 µM.

Regarding `CC1(C)C(=CC=C2CCCC(C=CC3=[N+](CCCCCC(=O)NNC(=O)c4ccncc4)c4ccc(Br)cc4C3(C)C)=C2Cl)N(CCCCCC(=O)O)c2ccc(Br)cc21` [Compound G2, 2-(2-(3-(2-(5-Bromo-1-(5-carboxypentyl)-3,3-dimethyl-indol-2-ylidene)ethylidene)-2-chloro-1-cyclohexen-1-yl)vinyl)-5-bromo-1-(6-(2-isonicotinoylhydrazinyl)-6-oxohexyl)-3,3-dimethyl-3H-indol-1-ium bromide], the IC50 in series [1] (Homo sapiens) was 75 µM.

Take `COc1cccc2c1C(=O)c1c(O)c3c(c(O)c1C2=O)C[C@@](O)(C(=O)CO)C[C@@H]3O[C@H]1C[C@H](N)[C@H](O)[C@H](C)O1` [DOX, doxorubicin, reference compound]: in series [1] (Homo sapiens), the IC50 stood at 0.21 µM.

Turning to “2-(7-(5-methoxyl-1-(5-carboxypentyl)-1,3-dihydro-5-ethyl-3-methyl-2H-indol-2-ylidene)-1,3,5-heptatrien-1-yl)-5-methoxyl-1-(6-(2-isonicotinoylhydrazinyl)-6-oxohexyl)-5-ethyl-3-methyl-3H-indol-1-ium bromide [Compound G6]”, the IC50 in series [1] was determined as 37.1 µM.
